Measurements from paper PMC13252604, “First Generation Proteolysis Targeting Chimeras (PROTACs) for the Treatment of Progeria” (Advanced Science, 2026).

System: HGADFN167 Lmna^G608G/G608G fibroblasts
Experiment: Oxygen consumption rates (OCR) measurement
Assay type: cell-based, human
Details: HGADFN167, 5 µM, 20 days
Text: FIGURE 6 (A) Representative cropped immunoblots and progerin quantification in human Lmna^G608G/G608G fibroblasts. MW, molecular weight (in kDa) markers. […] (B) PROTAC 2 increases cell proliferation (upper panels) and decreases the number of misshapen nuclei (lower panels). White arrows highlight selected misshapen nuclei. (C) PROTAC 2 decreases senescence‐associated β‐galactosidase (SA‐βgal) activity, interleukin (IL) 6, p16 and p21 senescent markers. Bar graphs show mean±sem of 2 (SA‐βgal and p21) or 3 (IL‐6 and p16) independent experiments performed in triplicate. (D) PROTAC 2 decreases phosphorylated histone 2AX (pH2AX) and increases trimethylated histone 3 (H3K9Me3) levels. (E) PROTAC 2 increases the oxygen consumption rate (OCR), ATP production and the number of healthy mitochondria in human progeroid cells. Bar graphs show mean±sem of 2 independent experiments performed in duplicate. […] Data were analysed using one‐way ANOVA followed by Dunnett's post–hoc test vs vehicle (panel A) or vs G608G cells (panels B‐E). ^*, p < 0.05; ^**, p < 0.01; ^***, p < 0.001; ^****, p < 0.0001. […]
Mitochondria were evaluated for the integrity of the membrane, matrix and cristae, and were classified as mitochondria with normal morphology (black arrows) or damaged mitochondria (red arrows, with alterations in the membrane, presence of inclusions in the matrix and concentric cristae or “onion-like” mitochondria). […]
ferrocyanide, 0.6 mL 5 M NaCl, 0.2 mL 0.2 M MgCl2, (all from Sigma Aldrich) and 6.2 mL of deionized water in a total volume of 20 mL] in the dark in a humidified incubator at 37 °C for 24 h without CO2 supply. Then, an equal volume of the supernatant of each well was transferred to a new 96-well plate for fluorescence measurement. The resultant production of fluorescein was measured using a FluoStar Optima instrument (BMG Labtech) with an excitation of 485 nm and emission at 535 nm. […]
Total RNA was extracted by RNAeasy Mini Kit (Qiagen) according to the manufacturer instructions and subsequently quantified using the NanoPhotometer N60 (Implen). […]

CC1(C)Oc2cc3oc(=O)ccc3cc2C[C@@H]1OC(=O)CCCCCNc1cccc2c1C(=O)N(C1CCC(=O)NC1=O)C2=O (stereo partly drawn) [compound 2]
ATP production: enhances
basal respiration: enhances
oxygen consumption rate (OCR): enhances OCR in human progeroid cells
